In patent publication US10912781B2, “Pharmaceutical composition comprising licarbazepine acetate” (BIAL-Portela & C.A., S.A., priority 2007, dated 2021):

Assay: Bulk density / apparent volume (Ph. Eur. edn. 6, test 2.9.15 or USP 31 <616>)
Format: physicochemical
Settings: API prior to granulation / preparation prior to forming the final formulation
Procedure: Suitable methods for determining the bulk density of the preparation will be well known to the skilled chemist, for example, the European Pharmacopeia edition 6, Test 2.9.15 “apparent volume”, pages 285-286, EDQM, 2007, or USP 31, vol. 1 test <616> page 231-232, The United States Pharmacopeia Convention, 2008. The apparent density of a compressed formulation is measured in terms of mass and volume of the formulation and is well within the capabilities of the skilled person.
A suitable method is described below: • Apparatus • settling apparatus capable of producing in 1 minute 250±15 taps from a height of 3±0.2 mm. The support for the graduated cylinder with its holder, has a mass of 450±5 g • a 250 ml graduated cylinder (2 ml intervals) with a mass of 220±40 g • Method • Into a dry cylinder, introduce without compacting, 100.0 g […] of the test substance. Secure the cylinder in its holder. Read the unsettled apparent volume (V0) to the nearest milliliter. Carry out 10, 500 and 1250 taps and read the corresponding volumes V10, V500, V1250, to the nearest milliliter. If the difference between V500 and V1250 is greater than 2 ml, carry out another 1250 taps. […]
Bulk/apparent density may then be determined in g/ml using the following formula: m/V0 where m is the mass in grams and V0 the unsettled apparent volume

Bulk density: less than 0.3 g/mL | Bulk density (listed as API): about 0.28 g/mL
Substance: licarbazepine acetate
